Holding throughout (test): NCI-60 cell line screen, 48 h
The test system of experiment [1] is A498.
In experiment [2] the test system is HL-60.
The test system of experiment [3] is HT-29.
Experiment [4] deals with MDA-MB-231.
Experiment [5] deals with MDA-N.
The test system of experiment [6] is NCI-H460.
Experiment [7] relates to NCI-H522.
The test system of experiment [8] is OVCAR-4.
Experiment [9] concerns PC-3.
Experiment [10] has as its system RPMI-8226.
Experiment [11] deals with SK-MEL-2.
The subject of experiment [12] is SK-MEL-5.
The subject of experiment [13] is SN12C.
For experiment [14], the system named is SR.
The test system of experiment [15] is UACC-62.
Experiment [16] concerns UO-31.
The subject of experiment [17] is NCI-H226.
Experiment [18] concerns OVCAR-3.
The subject of experiment [19] is OVCAR-8.
The subject of experiment [20] is SF-539.

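Briefly, cells in 96-well plates were exposed to five compound concentrations for 48 h, and endpoints were estimated by linear interpolation. At the GI50, growth is halved.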 The source made the active and inactive calls. Cut-off read from the data, not from the text of the source: active = GI50 up to about 1.1 µM and inactive = higher.

`COC(=O)C1=C(O)c2ccc(Cl)cc2S(=O)(=O)N1C`: the GI50 in experiment [1] was > 100 µM (inactive); in experiment [2], 33.8 µM (inactive); in experiment [3], > 100 µM (inactive); in experiment [4], > 100 µM (inactive); in [5], > 100 µM (inactive); in experiment [6] it was 45.3 µM (inactive). The GI50 in experiment [7] was 34.8 µM (inactive); in experiment [8] it was 45.1 µM (inactive); in [9], 83.4 µM (inactive); in experiment [10], 80.7 µM (inactive); in [11], > 100 µM (inactive); in [12] it was 97.1 µM (inactive). Also, the GI50 in experiment [13] is > 100 µM (inactive); in experiment [14] it was > 100 µM (inactive); in experiment [15] it was > 100 µM (inactive); in experiment [16], > 10 µM (inactive).
Take `CCOC(=O)CCC(NC(=O)c1ccc(Nc2nc3ccccc3nc2-c2cccs2)cc1)C(=O)OCC` (stereo not given): the GI50 in experiment [1] is 21.7 µM (inactive); in experiment [2] it was 5.21 µM (inactive); in [3] it was 25.6 µM (inactive); in [4] it was 27.3 µM (inactive); in [5], 20.6 µM (inactive); in [17] it was 26.6 µM (inactive). For the same compound, the GI50 in experiment [6] was 25.1 µM (inactive); in [18] it was > 100 µM (inactive); in experiment [8] it was 23.9 µM (inactive); in [19], 20.8 µM (inactive); in [9] it was 38.5 µM (inactive); in experiment [10], 7.53 µM (inactive). Moreover, the GI50 is 32.7 µM (inactive) in experiment [20]; 31.2 µM (inactive) in experiment [11]; 15.2 µM (inactive) in [12]; 22.1 µM (inactive) in experiment [13]; 11.8 µM (inactive) in experiment [14]; 23.7 µM (inactive) in [15]. In [16], the GI50 is 30.9 µM (inactive).
`CCOc1cc(-c2nc3ccccn3c2/N=C/c2cc([N+](=O)[O-])cc([N+](=O)[O-])c2O)ccc1O`: the GI50 in experiment [1], in experiment [2], in experiment [3], in experiment [4], in experiment [5] and in experiment [6] was > 100 µM (inactive) in each case. Further, the GI50 in [7], in [18], in experiment [8], in experiment [19], in experiment [9] and in experiment [10] was > 100 µM (inactive) throughout. In addition, the GI50 in experiment [20], in experiment [11], in experiment [12], in experiment [13], in experiment [14] and in experiment [15] was > 100 µM (inactive) in each case. Moreover, the GI50 in [16] is > 100 µM (inactive).
Take `CC1(C)Oc2ccc3c(=O)c4ccccc4oc3c2C1C(=O)O` (stereo not given): the GI50 in [1], in [3], in experiment [4], in experiment [5], in experiment [17] and in experiment [7] was > 100 µM (inactive) each time. Moreover, the GI50 in experiment [18], in [8], in [19], in experiment [9], in experiment [20] and in experiment [11] was > 100 µM (inactive) throughout. The GI50 in [12] is > 100 µM (inactive); in experiment [13], > 100 µM (inactive); in experiment [14] it was > 10 µM (inactive); in experiment [15], > 100 µM (inactive).
Turning to `CCN(CC)C(=O)N[C@@H](Cc1ccccc1)C(=O)NC`, the GI50 in experiment [1], in experiment [2], in experiment [3], in experiment [4], in [5] and in [17] was > 100 µM (inactive) each time. The GI50 in [6], in experiment [7], in [18], in experiment [8], in experiment [19] and in experiment [9] was > 100 µM (inactive) in each case. Besides, the GI50 in [10], in [11], in experiment [12], in experiment [13], in [14] and in experiment [15] was > 100 µM (inactive) each time. Besides, the GI50 in [16] is > 100 µM (inactive).
In the case of `CC(CC(=O)O)(CC(=O)O)c1ccccc1`, the GI50 in experiment [1], in [2], in [3], in [4], in experiment [5] and in experiment [17] was > 100 µM (inactive) each time. Further, the GI50 in experiment [6], in experiment [7], in experiment [18], in [8], in experiment [19] and in [9] was > 100 µM (inactive) each time. In addition, the GI50 in [10], in experiment [11], in experiment [12], in experiment [13], in [14] and in [15] was > 100 µM (inactive) in each case. In addition, the GI50 in experiment [16] was > 100 µM (inactive).
Turning to `O=C1C(Cl)=C(OCCCCl)C(=O)c2c(O)ccc(O)c21`, the GI50 is 15.2 µM (inactive) in [1]; 0.0715 µM (active) in experiment [2]; 2.03 µM (inactive) in experiment [3]; 2.31 µM (inactive) in [4]; 1.52 µM (inactive) in [5]; 16.9 µM (inactive) in experiment [17]. Moreover, the GI50 in experiment [6] is 6.61 µM (inactive); in [18], 2.42 µM (inactive); in experiment [8], 2.74 µM (inactive); in experiment [19], 7.06 µM (inactive); in [9], 3.99 µM (inactive); in experiment [10], 1.37 µM (inactive). The GI50 was 3.01 µM (inactive) in [20]; 1.73 µM (inactive) in experiment [12]; 2.26 µM (inactive) in experiment [13]; 0.0836 µM (active) in [14]; 1.77 µM (inactive) in [15]; 6.55 µM (inactive) in [16].
For the compound `Cn1c(COC(=O)NC2CCCCC2)c(COC(=O)NC2CCCCC2)c2ccc3ccccc3c21`, the GI50 in experiment [1] is 17.5 µM (inactive); in [3] it was 53.6 µM (inactive); in experiment [4], 69.5 µM (inactive); in experiment [5], > 100 µM (inactive); in [17], 23.7 µM (inactive); in [6], 3.01 µM (inactive). Also, the GI50 in [7] is 16.2 µM (inactive); in experiment [18] it was 58.3 µM (inactive); in experiment [8] it was 53.3 µM (inactive); in [19] it was 40.2 µM (inactive); in experiment [9], 75.9 µM (inactive); in experiment [10] it was 49.2 µM (inactive). The GI50 was 16 µM (inactive) in experiment [20]; 31.6 µM (inactive) in experiment [11]; 31.7 µM (inactive) in experiment [12]; 2.96 µM (inactive) in [14]; 48.6 µM (inactive) in experiment [15]; 34 µM (inactive) in experiment [16].
Regarding `C=C1C(=O)C([Si](C)(C)C)=C2C=C(C)C3(CC3)C12C` (stereo not given), the GI50 in [1] is 31 µM (inactive); in [2] it was 7.08 µM (inactive); in [3], 18.2 µM (inactive); in experiment [4], 23 µM (inactive); in experiment [5], 22.7 µM (inactive); in experiment [17], 32 µM (inactive). For the same compound, the GI50 in experiment [6] is 47.6 µM (inactive); in [7], 14 µM (inactive); in [18], 29.2 µM (inactive); in [8] it was 25.6 µM (inactive); in [19] it was 57.4 µM (inactive); in experiment [9], 3.36 µM (inactive). Further, the GI50 is 3.88 µM (inactive) in [10]; 15.6 µM (inactive) in experiment [11]; 19.4 µM (inactive) in experiment [12]; 40.9 µM (inactive) in experiment [13]; 0.0279 µM (active) in experiment [14]; 14.7 µM (inactive) in experiment [15]. Moreover, in [16], the GI50 is 43.8 µM (inactive).
Take `C=C1C(=O)O[C@H]2[C@H]1CC(=O)/C(C)=C/CC[C@@]1(C)O[C@@H]21`: the GI50 was 1.64 µM (inactive) in experiment [1]; 1.13 µM (inactive) in [3]; 1.05 µM (active) in experiment [4]; 0.259 µM (active) in experiment [5]; 4.26 µM (inactive) in experiment [17]; 10.9 µM (inactive) in [6]. The GI50 in experiment [7] was 0.256 µM (active); in experiment [18], 0.224 µM (active); in [8], 2.93 µM (inactive); in experiment [19], 2.01 µM (inactive); in [9], 2.19 µM (inactive); in experiment [20], 2.08 µM (inactive). Besides, the GI50 was 3.03 µM (inactive) in experiment [11]; 0.973 µM (active) in experiment [12]; 1.66 µM (inactive) in [13]; 0.541 µM (active) in experiment [14]; 1.37 µM (inactive) in [15]; 0.879 µM (active) in experiment [16].
As for `O=C1CCCC[C@H]1C(O)CC1CC(=O)N(c2ccccc2)C(=O)C1` (stereo not given in full), the GI50 in experiment [1], in [2], in [3], in experiment [4], in [5] and in [17] was > 100 µM (inactive) in each case. Also, the GI50 in experiment [6], in [7], in experiment [18], in experiment [8], in experiment [19] and in [9] was > 100 µM (inactive) throughout. In addition, the GI50 in experiment [10], in [20], in experiment [12], in [13], in experiment [14] and in experiment [15] was > 100 µM (inactive) throughout. Also, the GI50 in experiment [16] is > 100 µM (inactive).

Values taken from ChEMBL document CHEMBL1201862, “PubChem BioAssay data set” (2004).
